Experimental data published in patent publication US20040142821A1, “Pesticide composition comprising malononitrile compounds” (priority 2001, published 2004).

Columns and labels:
[1] = tested on: Cullex pipiens pallens; test: whole plant or invertebrate; settings: 24 h
Procedure: In 100 ml of ion-exchanged water, the test liquid had been prepared as described above, was added dropwise in an amount of 0.7 ml (the concentration of active ingredient was 3.5 ppm). Twenty final-instar larvae of Cullex pipiens pallens (common mosquito) were set free in the solution. After 1 days, their survival was examined to determine the mortality.

[2] = tested on: Musca domestics; test: Pesticidal test against Musca domestics, treated filter paper with sucrose bait (Test Example 5); assay type: in vivo; settings: 500 ppm test liquid (Formulation Example 5), 0.7 ml on filter paper, ten female adults, after 24 hours
Procedure: Ten female adults of Musca domestics (house fly) were set free in the polyethylene cup, which was then kept covered. After 24 hours, their survival was examined to determine the mortality.

Row | SMILES | mortality at 3.5 µg/mL [1] [%] | mortality at 500 ppm [2] [%]
1 | C=CCC(C#N)(C#N)C(c1ccc(OC(F)(F)F)cc1)C(C)(C)C (stereo not drawn) [Compound 103, 2-allyl-2-(1-(4-(trifluoromethoxy)phenyl)-2,2-dimethylpropyl)malononitrile] | 100 | 
2 | C#CCC(C#N)(C#N)C(C=C)c1ccc(OC(F)(F)F)cc1 (stereo not drawn) [Compound 34, 2-(2-propynyl)-2-(1-(4-(trifluoromethoxy)phenyl)-2-propenyl)malononitrile] | 100 | 100
3 | CC(C)=CCC(C#N)(C#N)Cc1ccc(OC(F)(F)F)cc1 [Compound 27, 2-(3-methyl-2-butenyl)-2-(4-(trifluoromethoxy)benzyl)malononitrile] | 100 | 
4 | CC(C)=CCC(C#N)(C#N)Cc1ccc(Cl)cc1 [Compound 25, 2-(4-chlorobenzyl)-2-(3-methyl-2-butenyl)malononitrile] | 100 | 
5 | CCCCC(C)C(C#N)(C#N)Cc1ccc(C(F)(F)F)cc1 (stereo not drawn) [Compound 113, 2-(1-methylpentyl)-2-(4-(trifluoromethyl)benzyl)malononitrile] | 100 | 
6 | C=CCC(C#N)(C#N)Cc1cccc(OC)c1 [Compound 28, 2-allyl-2-(3-methoxybenzyl)malononitrile] | 100 | 
7 | C=CCC(C#N)(C#N)C(OC)c1ccc(C#N)cc1 (stereo not drawn) [Compound 83, 2-allyl-2-(4-cyano-α-methoxybenzyl)malononitrile] | 100 | 
8 | CC(C)CCC(C#N)(C#N)Cc1ccc(C(F)(F)F)cc1 [Compound 105, 2-(3-methylbutyl)-2-(4-(trifluoromethyl)benzyl)malononitrile] | 100 | 100
9 | C=CCCC(C#N)(C#N)Cc1ccc(OCCC)cc1 [Compound 99, 2-(3-butenyl)-2-(4-propoxybenzyl)malononitrile] | 100 | 
10 | C=CCCC(C#N)(C#N)Cc1c(Cl)cc(C(F)(F)F)cc1Cl [Compound 65, 2-(3-butenyl)-2-(2,6-dichloro-4-(trifluoromethyl)benzyl)malononitrile] | 100 | 100
11 | C=CCCC(C#N)(C#N)Cc1ccc(OCC(F)(F)F)cc1 [Compound 81, 2-(3-butenyl)-2-(4-(2,2,2-trifluoroethoxy)benzyl)malononitrile] | 100 | 
12 | C=CCC(C#N)(C#N)Cc1c(Cl)cccc1Cl [Compound 54, 2-allyl-2-(2,6-dichlorobenzyl)malononitrile] | 100 | 
13 | C=CCC(C#N)(C#N)Cc1cccc(Oc2ccccc2)c1 [Compound 118, 2-allyl-2-(3-phenoxybenzyl)malononitrile] | 100 | 
14 | C=CCC(C#N)(C#N)Cc1ccc(C(F)(F)F)cc1[N+](=O)[O-] [Compound 63, 2-allyl-2-(2-nitro-4-(trifluoromethyl)benzyl)malononitrile] | 100 | 
15 | CC=CCC(C#N)(C#N)Cc1ccc(C(F)(F)F)cc1 [Compound 107, 2-(2-butenyl)-2-(4-(trifluoromethyl)benzyl)malononitrile] | 100 | 100
16 | CCCC(C)C(C#N)(C#N)Cc1ccc(C(F)(F)F)cc1 (stereo not drawn) [Compound 112, 2-(1-methylbutyl)-2-(4-(trifluoromethyl)benzyl)malononitrile] | 100 | 
17 | C=CCCC(C#N)(C#N)Cc1ccc(C(F)(F)F)cc1[N+](=O)[O-] [Compound 67, 2-(3-butenyl)-2-(2-nitro-4-(trifluoromethyl)benzyl)malononitrile] | 100 | 100
18 | CCC(C#N)(C#N)Cc1ccc(C(F)(F)F)cc1 [Compound 75, 2-ethyl-2-(4-(trifluoromethyl)benzyl)malononitrile] | 100 | 100
19 | C=CCC(C#N)(C#N)C(OCC)c1ccc(OC(F)(F)F)cc1 (stereo not drawn) [Compound 82, 2-allyl-2-(4-(trifluoromethoxy)-α-ethoxybenzyl)malononitrile] | 100 | 100

Row | SMILES | mortality at 3.5 µg/mL [1] [%] | mortality at 500 ppm [2] [%]
20 | C=CCC(C#N)(C#N)C(C#N)c1ccc(OC)cc1 (stereo not drawn) [Compound 91, 2-allyl-2-(4-methoxy-α-cyanobenzyl)malononitrile] | 100 | 
21 | C=CCC(C#N)(C#N)Cc1ccc(SC)cc1 [Compound 70, 2-allyl-2-(4-(methylthio)benzyl)malononitrile] | 100 | 
22 | C=CCCC(C#N)(C#N)Cc1ccc(OCC)cc1 [Compound 98, 2-(3-butenyl)-2-(4-ethoxybenzyl)malononitrile] | 100 | 
23 | C=CCCCC(C#N)(C#N)Cc1ccc(C#N)cc1 [Compound 7, 2-(4-cyanobenzyl)-2-(4-pentenyl)malononitrile] | 100 | 
24 | C=CCCC(C#N)(C#N)Cc1cccc(OC(F)(F)F)c1 [Compound 90, 2-(3-butenyl)-2-(3-(trifluoromethoxy)benzyl)malononitrile] |  | 100
25 | C=CCCC(C#N)(C#N)Cc1ccc(OC(C)C)cc1 [Compound 100, 2-(3-butenyl)-2-(4-isopropoxybenzyl)malononitrile] | 100 | 
26 | C=CCC(C#N)(C#N)C(C)(C)c1cccc(Cl)c1 [Compound 48, 2-allyl-2-(1-(3-chlorophenyl)-1-methylethyl)malononitrile] | 100 | 
27 | C=CCCC(C#N)(C#N)Cc1ccc(C#N)cc1 [Compound 6, 2-(3-butenyl)-2-(4-cyanobenzyl)malononitrile] | 100 | 
28 | CCCCCC(C#N)(C#N)Cc1ccc(C(F)(F)F)cc1 [Compound 104, 2-pentyl-2-(4-(trifluoromethyl)benzyl)malononitrile] | 100 | 
29 | C=CCC(C#N)(C#N)Cc1ccc(F)c(Oc2ccccc2)c1 [Compound 116, 2-allyl-2-(4-fluoro-3-phenoxybenzyl)malononitrile] | 100 | 
30 | C=CCC(C#N)(C#N)Cc1ccc(S(C)(=O)=O)cc1 [Compound 61, 2-allyl-2-(4-(methylsulfonyl)benzyl)malononitrile] | 100 | 
31 | C=CCC(C#N)(C#N)Cc1ccc(OCC)cc1 [Compound 44, 2-allyl-2-(4-ethoxybenzyl)malononitrile] | 100 | 
32 | C=CCC(C#N)(C#N)Cc1ccc(OC)cc1 [Compound 29, 2-allyl-2-(4-methoxybenzyl)malononitrile] | 100 | 
33 | CC(C)=CCC(C#N)(C#N)Cc1ccc(C(F)(F)F)cc1 [Compound 106, 2-(3-methyl-2-butenyl)-2-(4-(trifluoromethyl)benzyl)malononitrile] | 100 | 
34 | C=CCC(C#N)(C#N)Cc1ccc(Br)cc1 [Compound 13, 2-allyl-2-(4-bromobenzyl)malononitrile] | 100 | 
35 | C=CCC(C#N)(C#N)Cc1ccc(C(C)=O)cc1 [Compound 97, 2-(4-acetylbenzyl)-2-allylmalononitrile] | 100 | 
36 | C=CCCC(C#N)(C#N)Cc1ccc(OC(F)(F)C(F)F)cc1 [Compound 80, 2-(3-butenyl)-2-(4-(1,1,2,2-tetrafluoroethoxy)benzyl)malononitrile] | 100 | 
37 | C=CCCC(C#N)(C#N)Cc1ccc(OCC=C)cc1 [Compound 38, 2-(3-butenyl)-2-(4-(2-propenyloxy)benzyl)malononitrile] | 100 | 
38 | C=CCCC(C#N)(C#N)Cc1ccc(OC(C)=O)cc1 [Compound 78, 2-(3-butenyl)-2-(4-(acetyloxy)benzyl)malononitrile] | 100 | 
